According to patent publication US9556110B2, “Aminoalcohol lipidoids and uses thereof” (Massachusetts Institute of Technology, priority 2008, dated 2017):

System: Factor VII
Test: In vivo Factor VII knockdown after injection of anti-Factor VII siRNA lipidoid formulations
Set-up: species or system C57BL/6 mice
Conditions: mice, 0.01 mg/kg siRNA dosing
Protocol: C57BL/6 mice (Charles River Labs) received either saline or siRNA in lipidoid formulations via tail vein injection at a volume of 0.01 ml/g. […] At 48 hours after administration, animals were anesthetized by isofluorane inhalation and blood was collected into serum separator tubes by retroorbital bleed. Serum levels of Factor VII protein were determined in samples using a chromogenic assay (Biophen FVII, Aniara Corporation) according to the manufacturer's protocols. A standard curve was generated using serum collected from saline-treated animals. Exemplary results are depicted in FIG. 7.
To test siRNA delivery efficacy in vivo, a mouse model for liver delivery was used. […] Once produced by hepatocytes, Factor VII is released into the bloodstream, and a baseline level of expression can be determined by simple blood draw and quantification of protein levels by colorimetric assay. By delivering anti-Factor VII siRNA to hepatocytes, knockdown of this model protein can be achieved and a percentage of silencing can be determined by comparison to an untreated control. […]
Following the initial in vivo screening experiments, two compounds were used to conduct a dose response. […] In addition to Factor VII measurement, the change in mouse body weight is recorded and a loss in weight is generally considered formulation induced toxicity (See FIG. 13b and FIG. 14b). […]

Row | SMILES | difference of Factor VII reduction between racemic lipidoid and R or S forms | reduction of systemic Factor VII (preliminary)
1 | CCCCCCCCCCC(O)CN(CCN1CCN(CCN(CC(O)CCCCCCCCCC)CC(O)CCCCCCCCCC)CC1)CCN(CC(O)CCCCCCCCCC)CC(O)CCCCCCCCCC (racemic) [C12-200] | insignificant | 
2 | CCCCCCCCCC[C@H](O)CN(CCN1CCN(CCN(C[C@@H](O)CCCCCCCCCC)C[C@@H](O)CCCCCCCCCC)CC1)CCN(C[C@@H](O)CCCCCCCCCC)C[C@@H](O)CCCCCCCCCC [(S)—C12-200] |  | approximately 50%
